Measured values taken from PubChem BioAssay AID248 (DTP/NCI, 2004).
Several values for one entry are separate records, joined by “and”; a condition that tells them apart may be missing. Equal values may be shown once. Inconclusive results and toxic doses are left out.

Test system: L1210 leukemia ip in BDF1 mice, survival T/C
Test: NCI In Vivo Anticancer Drug Screen. Data for tumor model L1210 Leukemia (intraperitoneal) in B6D2F1 (BDF1) mice
Settings: endpoint: mean survival time, higher = longer survival
Method in brief: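 Each compound was tested against a transplantable tumor grown in mice. The endpoint was survival, with treated animals benchmarked against vehicle controls as a simple ratio.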

[1] = dose: 100.0 mg/kg/injection, schedule: Q01DX001 (ip), vehicle: saline
[2] = dose: 200.0 mg/kg/injection, schedule: Q01DX001 (ip), vehicle: saline
[3] = dose: 100.0 mg/kg/injection, schedule: Q01DX009 (ip), vehicle: saline with Tween-80
[4] = dose: 200.0 mg/kg/injection, schedule: Q01DX009 (ip), vehicle: saline with Tween-80
[5] = dose: 100.0 mg/kg/injection, schedule: Q04DX003 (ip), vehicle: Klucel (hydroxypropylcellulose) (HPC)
[6] = dose: 200.0 mg/kg/injection, schedule: Q04DX003 (ip), vehicle: Klucel (hydroxypropylcellulose) (HPC)
[7] = dose: 400.0 mg/kg/injection, schedule: Q04DX003 (ip), vehicle: Klucel (hydroxypropylcellulose) (HPC)
[8] = dose: 100.0 mg/kg/injection, schedule: Q01DX009 (ip), vehicle: Klucel (hydroxypropylcellulose) (HPC)
[9] = dose: 200.0 mg/kg/injection, schedule: Q01DX009 (ip), vehicle: Klucel (hydroxypropylcellulose) (HPC)
[10] = dose: 400.0 mg/kg/injection, schedule: Q01DX009 (ip), vehicle: Klucel (hydroxypropylcellulose) (HPC)
[11] = dose: 400.0 mg/kg/injection, schedule: Q01DX001 (ip), vehicle: saline
[12] = dose: 100.0 mg/kg/injection, schedule: Q04DX003 (ip), vehicle: saline with Tween-80
[13] = dose: 200.0 mg/kg/injection, schedule: Q04DX003 (ip), vehicle: saline with Tween-80
[14] = dose: 400.0 mg/kg/injection, schedule: Q04DX003 (ip), vehicle: saline with Tween-80
[15] = dose: 400.0 mg/kg/injection, schedule: Q01DX009 (ip), vehicle: saline with Tween-80
[16] = dose: 100.0 mg/kg/injection, schedule: Q01DX001 (ip), vehicle: carboxymethylcellulose (CMC)
[17] = dose: 200.0 mg/kg/injection, schedule: Q01DX001 (ip), vehicle: carboxymethylcellulose (CMC)
[18] = dose: 400.0 mg/kg/injection, schedule: Q01DX001 (ip), vehicle: carboxymethylcellulose (CMC)

O=C1CCn2c1c(O)c1ccccc1c2=O was tested, and the T/C [1] was 97 % of control and the T/C [2] was 97 % of control.
In the case of O=C(O)C1CCC(CC2CC3CCC2C3)CC1 (centres undefined), the T/C [3] is reported as 90 % of control and the T/C [4] is reported as 96 % of control.
O=Cc1ccc(C=O)c(Cl)c1 was tested, and the T/C (dose: 100.0 mg/kg/injection, schedule: Q01DX009 (ip), vehicle: saline sonified) was 100 % of control, the T/C [5] was 100 % of control and the T/C (dose: 200.0 mg/kg/injection, schedule: Q01DX009 (ip), vehicle: saline sonified) was 87 % of control. For the same compound, the T/C [6] was 95 % of control, the T/C (dose: 400.0 mg/kg/injection, schedule: Q01DX009 (ip), vehicle: saline sonified) was 94 % of control and the T/C [7] was 103 % of control.
With COc1ccc(OCC2CO2)cc1 (centres undefined) the T/C [8] was 103 % of control, the T/C [5] was 100 % of control and the T/C [9] was 103 % of control. The T/C [6] was 96 % of control, the T/C [10] was 102 % of control and the T/C [7] was 102 % of control.
For CC(=O)CCC(C(C)=O)C(C)=O, the T/C [1] was 106 % of control, the T/C [2] was 106 % of control and the T/C [11] was 103 % of control.
With Cc1cc(C)cc(C(C)C)c1 the T/C [12] was 96 % of control, the T/C [13] was 96 % of control and the T/C [14] was 93 % of control.
For CCOc1ccc(N=C=S)cc1, the T/C [1] was 93 % of control, the T/C [2] was 98 % of control and the T/C [11] was 102 % of control.
OCCN1CCC2(CC1)SSC1(CCN(CCO)CC1)S2 was tested, and the T/C (dose: 50.0 mg/kg/injection, schedule: Q01DX009 (ip), vehicle: saline with Tween-80) was 104 % of control, the T/C [3] was 98 % of control and the T/C [12] was 100 % of control. For the same compound, the T/C [4] was 93 % of control and the T/C [13] was 104 % of control.
In the case of O=C(Nc1ccc(CCNC2=NCCN2)cc1)c1ccc(C(=O)Nc2ccc(CCNC3=NCCN3)cc2)cc1, the T/C (dose: 1.0 mg/kg/injection, schedule: Q01DX Z (ip), vehicle: water) is reported as 107 % of control, the T/C (dose: 1.5 mg/kg/injection, schedule: Q01DX Z (ip), vehicle: water) is reported as 109 % of control and the T/C (dose: 3.0 mg/kg/injection, schedule: Q01DX Z (ip), vehicle: water) is reported as 158 % of control. For the same compound, the T/C (dose: 3.75 mg/kg/injection, schedule: Q01DX Z (ip), vehicle: water) was 167 % of control, the T/C (dose: 7.5 mg/kg/injection, schedule: Q01DX Z (ip), vehicle: water) was 151 % of control and the T/C (dose: 10.0 mg/kg/injection, schedule: Q01DX Z (ip), vehicle: carboxymethylcellulose (CMC)) was 216 % of control. For the same compound, the T/C (dose: 15.0 mg/kg/injection, schedule: Q01DX Z (ip), vehicle: water) was 92 % of control, the T/C (dose: 20.0 mg/kg/injection, schedule: Q01DX Z (ip), vehicle: carboxymethylcellulose (CMC)) was 180 % of control and the T/C (dose: 40.0 mg/kg/injection, schedule: Q01DX Z (ip), vehicle: carboxymethylcellulose (CMC)) was 118 % of control. The T/C (dose: 62.0 mg/kg/injection, schedule: Q01DX Z (oral), vehicle: water) was 101 % of control, the T/C (dose: 80.0 mg/kg/injection, schedule: Q01DX Z (ip), vehicle: carboxymethylcellulose (CMC)) was 108 % of control and the T/C (dose: 125.0 mg/kg/injection, schedule: Q01DX Z (oral), vehicle: water) was 100 % of control. For the same compound, the T/C (dose: 250.0 mg/kg/injection, schedule: Q01DX Z (oral), vehicle: water) was 109 % of control and the T/C (dose: 500.0 mg/kg/injection, schedule: Q01DX Z (oral), vehicle: water) was 101 % of control.
In the case of CC(C)CCCC(C)C1CCC2C3CC=C4C=C(OC(=O)c5ccccc5)CCC4(C)C3CCC12C (centres undefined), the T/C [3] is reported as 90 % of control, the T/C [12] is reported as 97 % of control and the T/C [4] is reported as 87 % of control. The T/C [13] was 95 % of control, the T/C [15] was 95 % of control and the T/C [14] was 87 % of control.
In the case of CCCCCCCCCCCC(=O)NC(=S)Nc1cccc(F)c1, the T/C [5] is reported as 95 % of control and the T/C [6] is reported as 90 % of control.
In the case of Oc1cc(O)c(O)cc1O, the T/C (dose: 6.25 mg/kg/injection, schedule: Q01DX009 (ip), vehicle: saline) is reported as 102 % of control, the T/C (dose: 6.25 mg/kg/injection, schedule: Q04DX003 (ip), vehicle: saline with Tween-80) is reported as 93 % of control and the T/C (dose: 12.5 mg/kg/injection, schedule: Q01DX009 (ip), vehicle: saline) is reported as 102 % of control. For the same compound, the T/C (dose: 12.5 mg/kg/injection, schedule: Q04DX003 (ip), vehicle: saline with Tween-80) was 97 % of control, the T/C (dose: 25.0 mg/kg/injection, schedule: Q01DX009 (ip), vehicle: saline) was 110 % of control and the T/C (dose: 25.0 mg/kg/injection, schedule: Q04DX003 (ip), vehicle: saline with Tween-80) was 98 % of control.
In the case of COC(C)(C)CN(CCCNC(=S)Nc1ccccc1)C(=S)Nc1ccccc1, the T/C (dose: 50.0 mg/kg/injection, schedule: Q01DX001 (ip), vehicle: carboxymethylcellulose (CMC)) is reported as 103 % of control, the T/C [16] is reported as 97 % of control and the T/C [17] is reported as 86 % of control. For the same compound, the T/C [18] was 93 % of control.
For CSc1cc2c(cc1N)Cc1cc(F)ccc1-2, the T/C [16] was 98 % of control, the T/C [17] was 98 % of control and the T/C [18] was 95 % of control.
For CSc1ccc(NC(=O)c2ccc(Cl)cc2Cl)cc1, the T/C (dose: 100.0 mg/kg/injection, schedule: Q01DX001 (ip), vehicle: saline with Tween-80) was 89 % of control, the T/C (dose: 100.0 mg/kg/injection, schedule: Q01DX009 (ip), vehicle: saline + alcohol) was 95 % of control and 108 % of control and the T/C (dose: 100.0 mg/kg/injection, schedule: Q04DX002 (ip), vehicle: saline with Tween-80) was 96 % of control and 108 % of control. For the same compound, the T/C (dose: 200.0 mg/kg/injection, schedule: Q01DX001 (ip), vehicle: saline with Tween-80) was 89 % of control, the T/C (dose: 200.0 mg/kg/injection, schedule: Q01DX009 (ip), vehicle: saline + alcohol) was 97 % of control and 106 % of control and the T/C (dose: 200.0 mg/kg/injection, schedule: Q04DX002 (ip), vehicle: saline with Tween-80) was 93 % of control and 97 % of control. The T/C (dose: 400.0 mg/kg/injection, schedule: Q01DX001 (ip), vehicle: saline with Tween-80) was 90 % of control and the T/C (dose: 400.0 mg/kg/injection, schedule: Q04DX002 (ip), vehicle: saline with Tween-80) was 93 % of control and 97 % of control.
With O=C(O)c1ccc2c3c(ccc([N+](=O)[O-])c13)C=C2 the T/C [12] was 96 % of control, the T/C [13] was 94 % of control and the T/C [14] was 103 % of control.
With Cc1c2ccccc2c(CSCCC(N)C(=O)O)c2ccccc12 (centres undefined) the T/C [3] was 89 % of control, the T/C [4] was 91 % of control and the T/C [15] was 110 % of control.
For CCOC1(c2ccccc2)C(c2ccccc2)N1C(=O)c1ccc([N+](=O)[O-])cc1 (centres undefined), the T/C [5] was 92 % of control, the T/C [6] was 91 % of control and the T/C [7] was 92 % of control.
For CC(=O)Nc1ccc(NC(=O)Nc2cccc(Cl)c2C)cc1, the T/C [8] was 89 % of control, the T/C [9] was 89 % of control and the T/C [10] was 91 % of control.
COc1ccc(CCNC(=O)c2ccccc2N=Cc2cc(Cl)cc(Cl)c2O)cc1OC was tested, and the T/C (dose: 75.0 mg/kg/injection, schedule: Q01DX009 (ip), vehicle: Klucel (hydroxypropylcellulose) (HPC)) was 94 % of control, the T/C (dose: 150.0 mg/kg/injection, schedule: Q01DX009 (ip), vehicle: Klucel (hydroxypropylcellulose) (HPC)) was 96 % of control and the T/C (dose: 300.0 mg/kg/injection, schedule: Q01DX009 (ip), vehicle: Klucel (hydroxypropylcellulose) (HPC)) was 96 % of control.
With OC(OC/C(I)=C(/I)COC(O)C(Cl)(Cl)Cl)C(Cl)(Cl)Cl (centres undefined) the T/C (dose: 100.0 mg/kg/injection, schedule: Q01DX009 (ip), vehicle: other) was 103 % of control, the T/C (dose: 100.0 mg/kg/injection, schedule: Q04DX003 (ip), vehicle: other) was 103 % of control and the T/C (dose: 200.0 mg/kg/injection, schedule: Q01DX009 (ip), vehicle: other) was 92 % of control. For the same compound, the T/C (dose: 200.0 mg/kg/injection, schedule: Q04DX003 (ip), vehicle: other) was 100 % of control and the T/C (dose: 400.0 mg/kg/injection, schedule: Q04DX003 (ip), vehicle: other) was 97 % of control.
CCCC(=O)N(C(=O)CCC)c1cc2c3c(c1)CCCN3CCC2 was tested, and the T/C (dose: 12.5 mg/kg/injection, schedule: Q04DX003 (ip), vehicle: Klucel (hydroxypropylcellulose) (HPC)) was 96 % of control, the T/C (dose: 25.0 mg/kg/injection, schedule: Q01DX009 (ip), vehicle: Klucel (hydroxypropylcellulose) (HPC)) was 95 % of control and the T/C (dose: 25.0 mg/kg/injection, schedule: Q04DX003 (ip), vehicle: Klucel (hydroxypropylcellulose) (HPC)) was 93 % of control. For the same compound, the T/C (dose: 50.0 mg/kg/injection, schedule: Q01DX009 (ip), vehicle: Klucel (hydroxypropylcellulose) (HPC)) was 92 % of control, the T/C (dose: 50.0 mg/kg/injection, schedule: Q04DX003 (ip), vehicle: Klucel (hydroxypropylcellulose) (HPC)) was 95 % of control and the T/C (dose: 100.0 mg/kg/injection, schedule: Q04DX003 (ip), vehicle: saline) was 93 % of control.
